# According to publication PMC5124248, “Antitumor activity of TY-011 against gastric cancer by inhibiting Aurora A, Aurora B and VEGFR2 kinases” (Journal of Experimental & Clinical Cancer Research : CR, 2016):
# System: human MGC-803 xenograft
# Experiment: Antitumor activity in vivo, MGC-803 xenograft in nude mice
# Set-up: species or system BALB/c nu/nu mice
# Settings: 50 mg/kg intraperitoneally twice a week
# Protocol: The animals were housed in specific pathogen-free (SPF) conditions at Key Laboratory of Brain Functional Genomics, Ministry of Education, and were acclimatized for a week prior to use. […] When the tumors reached a mean group size of 100 ~ 150 mm^3, the mice were randomized into control and treatment groups to receive treatment accordingly. […] The tumor growth was recorded with the measurement of length (L) and width (W) by caliper every other day, and calculated as tumor volume (V) = L × W^2/2. Meanwhile, the body weights of mice were recorded. The tumor volume at day n was expressed as relative tumor volume (RTV) according to the following formula: RTV% = (TVn/TV0) ×100%, where TVn is the tumor volume at day n and TV0 is the tumor volume at day 0. The therapeutic effect of treatment was calculated with formula T/C (%) = mean RTV of the treated group/mean RTV of the control group × 100%. […] The tumor regression of individual mouse was defined as the tumor volume at the end was less than the tumor volume when treatment was initiated.
smiles,measurement,setting,value
"CCc1c2c(nc3ccc(OC(=O)N4CCC(N5CCCCC5)CC4)cc13)-c1cc3c(c(=O)n1C2)COC(=O)[C@]3(O)CC [Irinotecan, reference compound]",T/C (%),,8.04%
same,Inhibition rate (%),by tumor weight,96.2%
same,Body weight (g) End,mean ± SEM,21.4 ± 0.2 g
same,Tumor weight,"mean ± SEM, control 0.79 g",0.03 ± 0.01 g
